US11034735B2, “Hybrid peptide, set of hybrid peptides, composition, uses of the hybrid peptide, method for inducing an immune response and kits” (priority 2017, dated 2021)

Key:
[1] = system: A. marginale antigen; assay: Indirect immunofluorescence reaction, sera of inoculated mice; assay type: in vivo; settings: serum 1:25
Description: (§1) The immunogenicity of each peptide was checked immunizing BALB/c mice, approximately six weeks old, with […] of protein (Machado et al., 1994). The mice were divided into groups of three animals each. The groups were: P28, P41, P42, P44, P50, P51, P53, P54, Pool (mice inoculated with a pool of peptides, in the case with all 8 hybrid peptides) and negative control group. For inoculations, the peptides were emulsified in Freund's complete adjuvant (Sigma) and inoculated intramuscularly in the quadriceps. Two further immunizations, on the 14th and 28th day after inoculation, were performed using incomplete Freund's adjuvant (Sigma). Each inoculation was carried out using 10 μg/mL of each peptide. Negative control mice were inoculated with sterile saline in place of the peptides and also emulsified in adjuvant. Blood samples were collected by intracardiac puncture on the 10th day after the last immunization and the sera obtained were stored at −20° C. until evaluated by Dot-ELISA and Western-blotting assays.
The prepared A. marginale antigen-containing blood smear slides were removed from the freezer and thawed at room temperature. […] After drying the slides, they were coverslipped using a buffered glycerine at a 9:1 ratio of glycerine/0.5 M carbonate-bicarbonate buffer pH 9.6 and then observed under a fluorescence microscope (Olympus, BX-FLA).

[2] = system: serum of BALB/c mice; assay: Dot-ELISA, synthetic peptides with serum of immunized BALB/c mice; assay type: in vivo; parameters: key to Peptide Reactivity, Mice serum inoculated with isolated peptides 1 / Peptide Reactivity, Mice serum inoculated with isolated peptides 2 / Peptide Reactivity, Mice serum inoculated with isolated peptides 3 / Peptide Reactivity, Mice serum inoculated with pool / Peptide Reactivity, Mice serum inoculated with Saline (Negative Control) / Reaction with pool of peptides, Mouse 1 serum / Reaction with pool of peptides, Mouse 2 serum / Reaction with pool of peptides, Mouse 3 serum: — = Did not react; X = Reacted; settings: for Peptide Reactivity, Mice serum inoculated with pool / Peptide Reactivity, Mice serum inoculated with isolated peptides 1 / Peptide Reactivity, Mice serum inoculated with isolated peptides 2 / Peptide Reactivity, Mice serum inoculated with isolated peptides 3 / Peptide Reactivity, Mice serum inoculated with Saline (Negative Control) / Reaction with pool of peptides, Mouse 1 serum / Reaction with pool of peptides, Mouse 2 serum / Reaction with pool of peptides, Mouse 3 serum: Dot-ELISA; for Peptide Reactivity, Mice serum inoculated with pool: mice inoculated with pool of all 8 hybrid peptides; for Peptide Reactivity, Mice serum inoculated with isolated peptides 1: serum of mouse 1 inoculated with the same isolated peptide; for Peptide Reactivity, Mice serum inoculated with isolated peptides 1 / Peptide Reactivity, Mice serum inoculated with isolated peptides 2 / Peptide Reactivity, Mice serum inoculated with isolated peptides 3: serum 1:25; for Peptide Reactivity, Mice serum inoculated with isolated peptides 2: serum of mouse 2 inoculated with the same isolated peptide; for Peptide Reactivity, Mice serum inoculated with isolated peptides 3: serum of mouse 3 inoculated with the same isolated peptide; for Peptide Reactivity, Mice serum inoculated with Saline (Negative Control): serum of saline-inoculated mice; for Reaction with pool of peptides, Mouse 1 serum / Reaction with pool of peptides, Mouse 2 serum / Reaction with pool of peptides, Mouse 3 serum: pool of peptides as antigen; for Reaction with pool of peptides, Mouse 1 serum: serum of mouse 1 inoculated with the labelled peptide; for Reaction with pool of peptides, Mouse 2 serum: serum of mouse 2 inoculated with the labelled peptide; for Reaction with pool of peptides, Mouse 3 serum: serum of mouse 3 inoculated with the labelled peptide
Description: as §1
(§2) Synthetic peptides were used as antigen in the Dot-ELISA technique to verify their ability to react with specific antibodies present in the serum of BALB/c mice, as well as in calf serum, all immunized. The technique was performed as described by Machado et al. (1994), with minor modifications. Briefly, small nitrocellulose discs were cut using a paper punch and each disc arranged in a flat bottom 24-well culture plate well. 4 μg/mL of each synthetic peptide alone, as well as the peptide pool, were deposited on each disc. The discs were dried at room temperature and then blocked for 12 hours at room temperature with […] TBS buffer (0.1 M Tris, 0.1 M NaCl and 0.5% Tween 20; TBS-Tween 20), plus 5% skim milk powder. Test sera were diluted 1:25 (mice and calf) in TBS-Tween 20 containing 5% skim milk powder and incubated for 120 minutes at room temperature and under constant stirring. Then the discs were subjected to two washes with TBS-Tween 20 plus 5% skim milk powder and one wash with TBS-Tween 20 (5 min interval between each wash). To each mouse serum disc was added the alkaline phosphate-coupled anti-mouse conjugate (anti-mouse IgG goat IgG, Sigma A-3562) diluted 1:30,000 in TBS-Tween 20 plus 5% of skim milk powder. To calf serum-containing discs, it was added alkaline phosphate-coupled anti-bovine conjugate (anti-cattle IgG rabbit IgG, Sigma A-0705) diluted 1:30,000 in TBS-Tween 20, plus 5% skim milk powder. After one hour incubation with the appropriate conjugates, washes were followed as in the previous step.

[3] = system: calf serum; assay: Dot-ELISA, synthetic peptides with serum of calf immunized with peptide pool; assay type: in vivo; parameters: key to Peptide Reactivity, Calf serum inoculated with pool: — = Did not react; X = Reacted; settings: Dot-ELISA; peptide as antigen; calf inoculated with pool SEQ ID NO: 20, 21, 23, 25, 26
Text: The immunogenicity of the synthetic peptides was verified by immunizing a previously tested calf with negative results for Anaplasma marginale, Babesia bovis and Babesia bigemina by serology and PCR. For inoculations, a peptide pool (SEQ ID NO: 20, SEQ ID NO: 21, SEQ ID NO: 23, SEQ ID NO: 25 and SEQ ID NO: 26) was emulsified in Freund's complete adjuvant (Sigma) and, inoculated intramuscularly in the quadriceps. Two further immunizations, on the 14th and 28th day after inoculation, were performed using incomplete Freund's adjuvant (Sigma). Each inoculation was done using 100 μg/mL of each peptide. Blood samples were collected by jugular puncture on the 10th day after the last immunization and the sera obtained were stored at −20° C. until evaluated by Dot-ELISA and Western-blotting assays.
as §2

[4] = system: mouse serum; assay: Western blotting, synthetic peptides with serum of inoculated mice; settings: in vivo
Description: as §1
Samples of synthetic peptides were analyzed by Western blotting. To this end, initially, the samples were submitted to polyacrylamide gel electrophoresis under denaturing conditions, according to the technique recommended by Laemmli (1970). Based on the sample volume 2× concentrated sample buffer (250 mM Tris-HCl pH 6.8, 40% glycerol, 8% SDS, 20% β-mercaptoethanol and 0.008% bromophenol blue) was added. The samples were homogenized, incubated for 5 minutes at 100° C. and applied to the gel. The separation gel was prepared at a concentration of 12% polyacrylamide in buffer (1.875 M Tris, pH 8.8 and 1% SDS) and 5% polyacrylamide for buffer packaging gel (1.875 M Tris, pH 6.8 and 0.5% SDS). Electrophoresis was performed in Tris-Glycine Running Buffer (50 mM Tris, pH 8.6, 1.92 M Glycine and 1% SDS) at 100 V for up to 3 hours and 30 minutes at 0° C. in the Mini-Protean II system (Bio-Rad).
Synthetic peptides processed on the polyacrylamide gel (SDS-PAGE) were transferred to the nitrocellulose membrane for analysis by Wester blot (TOWBIN et al., 1979). The nitrocellulose membrane (Merck) was previously incubated in ice cold transfer buffer (0.58% Tris Base pH 8.3, 20% methanol and 0.29% glycine). For this, the membrane was placed in the “Mini Trans-Blot” (Bio-Rad) electrotransfer system containing the same buffer and the transfer was performed at 100 V for 90 minutes. The membrane was incubated in TBS-Tween (10 mM Tris-HCl pH 7.5; 150 mM NaCl, 0.05% Tween-20) plus 5% skim milk powder for 12 hours at 4° C. under low agitation, for saturation of non-specific binding sites. The membrane was then incubated with each serum from each mouse alone or incubated with calf serum for 2 hours at room temperature under slow stirring. […]

Row | Sequence | Indirect immunofluorescence reaction for A. marginale, inoculated mice [1] | Peptide Reactivity, Mice serum inoculated with pool ([2]; peptide as antigen) | Peptide Reactivity, Mice serum inoculated with isolated peptides 1 ([2]; peptide as antigen) | Peptide Reactivity, Mice serum inoculated with isolated peptides 2 ([2]; peptide as antigen) | Peptide Reactivity, Mice serum inoculated with isolated peptides 3 ([2]; peptide as antigen) | Peptide Reactivity, Mice serum inoculated with Saline (Negative Control) ([2]; peptide as antigen) | Reaction with pool of peptides, Mouse 1 serum [2] | Reaction with pool of peptides, Mouse 2 serum [2] | Reaction with pool of peptides, Mouse 3 serum [2] | Peptide Reactivity, Calf serum inoculated with pool [3] | Dot-ELISA reaction of sera from mice inoculated with hybrid peptides alone ([2]; peptide as antigen) | Western blotting reaction of serum of mice inoculated with synthetic peptide [4]
1 | GASTDDAAAAAKIVAMAYGRGGGGTIVPVKTFDDGALTYFQFYDNNKVIP (Synthetic hybrid peptide) [P50] | positive | — | — | — | — | — | — | — | — | — |  | 
2 | LAESTEGNLEEVWILGKGGGGDELSKKVCGKGTTSGSTNQCG (Synthetic hybrid peptide) [P42] | positive | — | X | — | — | — | — | — | — | — | reacted | reacted
